The values that follow come from US6531148B1, “Therapeutic agents” (Takara Shuzo Co., Ltd., priority 1998, dated 2003).

The test system of test [1] is NO production induced by LPS and IFN-γ in RAW264.7 cells. Kind of test: NO production inhibition test. To be noted: for inhibition of NO production induced by LPS and IFN-γ: NO2− in the medium, Griess' reagent. Format: cell-based. How it is done: (1) RAW264.7 cells (ATCC TIB 71) were suspended in Dulbecco's modified Eagle's medium (Bio Whittaker, 12-917F) without phenol red containing 10% fetal bovine serum (Gibco) and 2 mM L-glutamine (Life Technologies Oriental, 25030-149) at a concentration of 3×10^5 cells/ml. 500 μl of the suspension was added to each well of a 48-well microtiter plate and the plate was incubated at 37° C. for 12 hours in the presence of 5% CO2. 10 μl of an aqueous solution containing 25 μg/ml lipopolysaccharide (LPS, Sigma, L-2012) and 500 U/ml interferon-γ (IFN-γ, sold by Cosmobio, GZM-MG-IFN), and 10 μl of the aqueous DGE solution at 250 or 500 μM were added to the well. The plate was incubated for additional 12 hours. The concentration of NO2^− produced by oxidation of NO in the medium was then measured. As control groups, a group to which LPS or IFN-γ was not added and a group to which DGE was not added were provided.
After cultivation, 100 μl of 4% Griess' reagent (Sigma, G4410) was added to 100 μl of the medium, and the mixture was allowed to stand for 15 minutes at room temperature. The absorbance at 490 nm was then measured. NO2^− concentration in the medium was calculated with reference to a calibration curve prepared by using NaNO2 at a given concentration dissolved in the same medium as that described above. All of the measurements were carried out in triplicate.
(2) RAW264.7 cells were suspended in Dulbecco's modified Eagle's medium without phenol red containing 10% fetal bovine serum and 2 mM L-glutamine at a concentration of 3×10^5 cells/ml. 500 μl of the suspension was placed in each well of a 48-well microtiter plate. […] The concentration of NO2^− produced by oxidation of NO in the medium was measured. […]
After cultivation, 100 μl of 4% Griess' reagent was added to 100 μl of the culture supernatant, and the mixture was allowed to stand for 15 minutes at room temperature. The absorbance at 490 nm was then measured. NO2^− concentration in the medium was calculated with reference to a calibration curve prepared by using NaNO2 at a given concentration dissolved in the same medium as that described above.
RAW264.7 cells were suspended in Dulbecco's modified Eagle's medium without phenol red containing 10% fetal bovine serum and 2 mM L-glutamine at a concentration of 3×10^5 cells/ml. […] The concentration of NO2^− produced by oxidation of NO in the medium was then measured. […]
After cultivation, 100 μl of 4% Griess' reagent (Sigma, G4410) was added to 100 μl of the medium, and the mixture was allowed to stand for 15 minutes at room temperature. The absorbance at 490 nm was then measured. NO2^− concentration in the medium was calculated with reference to a calibration curve prepared by using NaNO2 at a given concentration dissolved in the same medium as that described above.
Background: Griess reagent forms a coloured azo dye with nitrite.

A further test concerns Bacteria 1 to 5. In words: Antimicrobial activity test (overall statement). Type of test: cell-based. How it is done:
The antimicrobial activities of DGE against Escherichia coli W3110 (Bacterium 1), Salmonella typhimurium LT2 (Bacterium 2), Bacillus subtilis IFO3021 (Bacterium 3), Pseudomonas aeruginosa IFO3080 (Bacterium 4) and Streptococcus mutans GS5 (Bacterium 5) were examined as follows.
The Bacteria 1 to 4 were cultured overnight in L-broth. The cultures were diluted to a concentration of about 2×10^5 cells/180 μl with Sensitive Bouillon medium (Nissui) base on the turbidity. The Bacterium 5 was cultured overnight in Brain Heart Infusion medium. The culture was diluted to a concentration of about 2×10^5 cells/180 μl with Brain Heart Infusion medium based on the turbidity. 180 μl of each bacterial dilution was placed in each well of a 96-well microtiter plate. On the other hand, the respective bacterial dilutions were further diluted and spread onto plates of L-broth or Brain Heart Infusion medium. The plates were incubated at 37° C. overnight. The resulting colonies were counted to determine the stating viable cell numbers.
A 14.4 mg/ml DGE solution was diluted every 2-folds to prepare serial dilutions. 20 μl each of the dilutions was placed in the well in which the bacterial dilution had been placed. The cells were cultured at 37° C. for 24 hours without shaking. After cultivation, the turbidity of each culture was measured.
Furthermore, the culture from the well for which the growth of bacterial cells was not observed was spread onto plates. After the plates were incubated at 37° C. overnight, the colony number was counted to determine the viable cell number. […] The minimal growth-inhibitory concentrations and the minimal bacteriocidal concentrations of DGE for the Bacteria 1 to 5 were determined as shown in Table 2.

“Also recorded” adds a separate entry of the source.

Turning to “5-L-glutathion-S-yl-2-hydroxy-3,7-dioxabicyclo[2.2.2]octan-1-ol [DGE-GSH]”, in test [1] (LPS and IFN-γ, 10 μl of 1 mM DGE-GSH per 500 μl well, 16 hours, control 12.1 μM, no addition 4.6 μM), the “NO2− concentration in the medium” value stood at 9.4 µM. Also, the antimicrobial activity entry in the test with Bacteria 1 to 5 is given as “also exhibited similar activities”.
As for `O=C1C=CC(CO)OC1O` [DGE, L-glycero-1,5-epoxy-1αβ,6-dihydroxy-cis-hex-3-en-2-one], the “inhibition of NO production, 5 hours pre-culture with DGE compared with 0.5 hour” value in test [1] (DGE added before LPS and IFN-γ) is “stronger inhibition of NO production”. Also, the “inhibition of NO production induced by LPS and IFN-γ” value in test [1] is given as “dose-dependently inhibited NO production; also recorded: exhibited an activity of inhibiting NO production”. Also, the antimicrobial activity entry with Bacteria 1 to 5 is “exhibited an antimicrobial activity”.
As to `O=C1C=CC(CO)OC1O` [κ-DGE, D-glycero-1,5-epoxy-1αβ,6-dihydroxy-cis-hex-3-en-2-one], the “inhibition of NO production induced by LPS and IFN-γ” value in test [1] is recorded as “exhibited a similar activity”. In addition, the antimicrobial activity result in the test on Bacteria 1 to 5 is reported as “also exhibited similar activities”.
